Test results from US10307437B2, “Methods for treatment of vascular endothelial dysfunction using nicotinamide mononucleotide” (The Regents of the University of Colorado, a Body Corporate, priority 2014, dated 2019).
“Also recorded” adds a separate entry of the source.

Assays:
[1] = system: nitrotyrosine; assay: Western blot of aortic nitrotyrosine abundance; assay type: in vivo, mice; conditions: NMN 8 weeks
Excerpt: (§1) Young (4-8 months) C57Bl/6 male mice were purchased from Charles River and old (26-28 months) C57Bl/6 male mice were obtained from the National Institute on Aging rodent colony. Mice were fed normal rodent chow ad libitum for the duration of the study. After an acclimation period of 2 weeks, the young and old mice were divided into two subgroups: control animals (YC, OC) continued on normal drinking water and the other animals (YNMN, ONMN) received nicotinamide mononucleotide (NMN; Sigma-Aldrich Corp., St. Louis, Mo., USA) supplementation in the drinking water (240 mg/kg/day) for 8 weeks. All mice were housed in an animal care facility at the University of Colorado Boulder on a 12:12 hour light-dark cycle. […]
(§2) Aortas were used as a surrogate large elastic artery to provide sufficient tissue for analysis of protein expression by Western blot as described previously (Donato A. J. et al. 2013, J Physiol. 589, 4545-4554; Gano L. B. et al. 2014, Am J Physiol Heart Circ Physiol. 307, H1754-1763). […] Relative intensity was quantified using Image-J Software Version 1.0. […] The ratio of acetylated to total p65 was determined by running two identical Western blots. […] The ratio of acetylated to total p65 was determined for each animal and then normalized to the YC group mean.

[2] = system: SIRT1; assay: Western blot of aortic SIRT1 expression; assay type: in vivo, mice; conditions: NMN 8 weeks
Excerpt: as §1, §2

[3] = system: collagen type I; assay: Immunohistochemistry of aortic collagen type I; assay type: in vivo; conditions: old mice, NMN 8 weeks
Excerpt: (§3) Young (4-8 months) C57Bl/6 male mice were purchased from Charles River and old (26-28 months) C57Bl/6 male mice were obtained from the National Institute on Aging rodent colony. Mice were fed normal rodent chow ad libitum for the duration of the study. After an acclimation period of 2 weeks, the young and old mice were divided into two subgroups: control animals (YC, OC) continued on normal drinking water and the other animals (YNMN, ONMN) received nicotinamide mononucleotide (NMN; Sigma-Aldrich Corp., St. Louis, Mo., USA) supplementation in the drinking water (240 mg/kg/day) for 8 weeks. All mice were housed in an animal care facility at the University of Colorado Boulder on a 12:12 hour light-dark cycle. All animal procedures conformed to the Guide to the Care and Use of Laboratory Animals (NIH publication No. 85-23, revised 1996) and were approved by the UCB Animal Care and Use Committee.
(§4) Immunohistochemistry was used to determine aortic expression of collagen type I and elastin as previously described (Fleenor B. S. et al. 2010 J Physiol. 588, 3971-3982). […] Digital photomicrographs were obtained using a Nikon Eclipse TS100 photomicroscope, and quantification was performed with Image-J Software Version 1.0. The adventitial and medial layers for each sample were quantified together for whole vessel expression. […]

[4] = system: C57Bl/6 male mice; assay: Ex vivo carotid artery vasodilatory responses after NMN supplementation in drinking water
[5] = system: C57Bl/6 male mice; assay: In vivo aortic pulse wave velocity; conditions: young mice, NMN 240 mg/kg/day, 8 weeks
Excerpt: as §1
Aortic pulse wave velocity (aPWV) was measured as described previously (Sindler A. L. et al. 2011, Aging Cell. 10, 429-437; Fleenor B. S. et al. 2012b, Exp Gerontol. 47, 588-594). […] Aortic blood flow velocity was measured with two Doppler probes placed at the transverse aortic arch and abdominal aorta, respectively. Pre-ejection time, the time between the R-wave of the ECG to foot of the Doppler signal, was determined for each site. aPWV was calculated by dividing the distance between the transverse and abdominal probes by the difference in the thoracic and abdominal pre-ejection times.

[6] = target: T1, SIRT1 (Mus musculus, UniProt Q923E4); assay: SIRT1 activation by ratio of acetylated to total NFκB (p65 subunit) in aorta; assay type: in vivo; parameters: Aortas were used as a surrogate large elastic artery to provide sufficient tissue for analysis of protein expression by Western blot; from tissue; host or cells: mouse aorta (C57Bl/6); conditions: old mice, NMN 8 weeks
T1 sequence (Q923E4 1-737): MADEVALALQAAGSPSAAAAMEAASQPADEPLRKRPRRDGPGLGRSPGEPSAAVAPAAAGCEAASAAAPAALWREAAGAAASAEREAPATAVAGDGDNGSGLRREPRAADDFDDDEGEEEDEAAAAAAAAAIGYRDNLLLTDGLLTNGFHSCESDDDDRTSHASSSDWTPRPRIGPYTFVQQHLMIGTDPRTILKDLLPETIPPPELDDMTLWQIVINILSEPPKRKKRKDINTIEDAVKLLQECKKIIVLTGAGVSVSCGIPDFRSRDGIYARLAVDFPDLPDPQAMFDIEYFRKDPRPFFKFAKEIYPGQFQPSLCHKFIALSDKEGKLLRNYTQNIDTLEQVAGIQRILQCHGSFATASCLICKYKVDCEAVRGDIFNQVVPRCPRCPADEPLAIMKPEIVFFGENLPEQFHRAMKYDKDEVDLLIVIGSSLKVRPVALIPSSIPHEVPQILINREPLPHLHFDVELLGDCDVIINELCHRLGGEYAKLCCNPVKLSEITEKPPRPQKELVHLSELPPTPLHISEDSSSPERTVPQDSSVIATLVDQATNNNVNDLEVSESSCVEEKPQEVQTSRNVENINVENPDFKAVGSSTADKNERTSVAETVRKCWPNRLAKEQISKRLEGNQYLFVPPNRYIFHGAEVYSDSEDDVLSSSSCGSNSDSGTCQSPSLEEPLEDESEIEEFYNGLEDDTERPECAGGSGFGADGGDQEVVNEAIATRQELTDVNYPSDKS
Excerpt: as §1, §2

[7] = parameters: species or system mice; conditions: mouse, in vivo
Excerpt: as §3
Data are presented as mean±SEM in text, figures and tables. All analyses were performed with SPSS. A one-way ANOVA (Analysis of Variance) was used to analyze morphological characteristics, maximum EDD, NO-mediated EDD, EPR spectroscopy, aPWV, elastic modulus, Western blots, and immunohistochemistry. Within-group differences in the maximal EDD dose response to acetylcholine in the absence vs. presence of TEMPOL was determined using two-factor (group×treatment) repeated-measures ANOVA. […]

[8] = system: superoxide; assay: Aortic superoxide production by EPR spectroscopy; assay type: in vivo; conditions: young mice, NMN 8 weeks
Excerpt: as §3
Measurement of superoxide production in the thoracic aorta was performed using electron paramagnetic resonance (EPR) spectroscopy, as previously described (LaRocca T. J. et al. 2013, Mech Ageing Dev. 134, 314-320). […] The signal amplitude was analyzed using an MS300 X-band EPR spectrometer (Magnettech GmbH, Berlin, Germany) with the following settings: centrefield, 3350 G; sweep, 80 G; microwave modulation, 3000 mG, and microwave attenuation, 7 dB. […]

[9] = system: elastin; assay: Immunohistochemistry of aortic elastin; assay type: in vivo; conditions: old mice, NMN 8 weeks
Excerpt: as §3, §4

[10] = target: T1, SIRT1; conditions: in part by reducing oxidative stress (Gano et al. 2014); cited from earlier work
[11] = system: carotid arteries; assay: Ex vivo incubation of isolated carotid arteries with TEMPOL, EDD to acetylcholine; parameters: species or system mice; conditions: other groups (YC, YNMN, ONMN); TEMPOL 0.1 mM, 1 hour incubation
Procedure: EDD and endothelium-independent dilation were determined ex vivo in isolated carotid arteries as previously described (Rippe C. et al. 2010, Aging Cell. 9, 304-312; Sindler A. L. et al. 2011, Aging Cell. 10, 429-437). Mice were anesthetized using isoflurane and euthanized by exsanguination via cardiac puncture. The carotid arteries were carefully excised, cannulated onto glass micropipette tips, and secured with nylon (11-0) sutures in individual myograph chambers (DMT Inc., Ann Arbor, Mich., USA) containing buffered physiological saline solutions. The arteries were pressurized to 50 mmHg at 37° C. and were allowed to equilibrate for 45 minutes before experimentation. After submaximal preconstriction with phenylephrine (2 μM), increases in luminal diameter in response to acetylcholine (ACh: 1×10^−9-1×10^−4 M; Sigma-Aldrich Corp.) with and without co-administration of the NO synthase inhibitor, L-NAME, 0.1 mM, 30 minute incubation; (Sigma-Aldrich Corp.) or the superoxide dismutase mimetic 4-Hydroxy-2,2,6,6-tetramethylpiperidine-1-oxyl (TEMPOL, 0.1 mM, 1 hour incubation; Sigma-Aldrich Corp.) were determined. Endothelium-independent dilation was determined by vasodilation in response to the NO donor sodium nitroprusside (SNP: […]-1×10^−4 M; Sigma-Aldrich Corp.).
All dose-response data are presented as percent dilation, i.e. FIGS. 1A, 1C and 2A. […]

NC(=O)c1ccc[n+]([C@@H]2O[C@H](COP(=O)([O-])O)[C@@H](O)[C@H]2O)c1 [NMN, nicotinamide mononucleotide]
aortic nitrotyrosine abundance ([1]; old mice): decreased; also recorded: markedly reduced | aortic nitrotyrosine abundance ([1]; young mice): no significant effect | aortic SIRT1 protein expression ([2]; old mice): tended to increase | aortic SIRT1 protein expression ([2]; young mice): increased | arterial collagen type I expression [3]: reversed; also recorded: reduced arterial collagen type I to levels of young mice | Endothelium-independent dilation to sodium nitroprusside ([4]; young and old mice, NMN-treated vs controls): not significantly different; also recorded: did not influence | EDD and NO-mediated dilation ([4]; young mice, NMN 240 mg/kg/day in drinking water, 8 weeks): had no effect | aortic pulse wave velocity (aPWV) [5]: no significant effect | vascular SIRT1 activity (ratio of acetylated to total p65 subunit of NFκB) [6]: restored | body mass across the four groups [7]: no significant differences | aortic superoxide production [8]: no significant effect | arterial elastin expression [9]: partially increased; also recorded: increased elastin to levels not significantly different from young mice

O=C(Nc1ccccc1-c1cn2c(CN3CCNCC3)csc2n1)c1cnc2ccccc2n1 [SRT1720]
EDD in old mice [10]: improves

CC1(C)CC(O)CC(C)(C)N1[O] [TEMPOL, 4-hydroxy-2,2,6,6-tetramethylpiperidin-1-oxyl]
carotid artery EDD in presence of TEMPOL [11]: no significant effect; also recorded: no significant improvement
